Earlier results on one compound are cited in patent US8784886B2, “Coating capsules with active pharmaceutical ingredients” (GlaxoSmithKline, LLC, priority 2006, dated 2014).

Each structure is given as a SMILES string. Where only a bound is given, the exact number is not on record here.

For the data set the following is noted: gelatin capsules, stored and packaged under the prescribed conditions of temperature and humidity.

Consider `CC1=C(/C=C/C(C)=C/C=C/C(C)=C/CO)C(C)(C)CCC1` [USP vitamin A, vitamin A], for which the “time without significant loss of potency of the encapsulated contents” value was not below 3 years.
